Among the data in patent publication US6495580B1, “Compounds, compositions and methods for treating or preventing pneumovirus infection and associated diseases” (ViroPharma Incorporated, priority 1998, dated 2002) are IC50 and CC75 values, retold here.

Read-outs that look alike come from different tables or passages of the source.

What is called IC50 is the concentration that inhibits the measured activity by half.

What all share (type): cell-based
The subject of one data set is goat RSV. As to the kind of experiment: Cell culture assay for inhibition of pneumovirus replication, GRSV. Particulars: protection from cytopathic effect. How it is done:
(§1) The replication of many viruses may be quantitatively assessed in the laboratory in various cell or tissue culture systems. Such in vitro culture methodologies are available and useable by those skilled in the art for the propagation and quantitative measurement of the replication of pneumoviruses. The following procedure was used for the in vitro quantitative measure of RSV replication.
(§2) Using the procedure described in this example, compounds of the present invention were evaluated for their ability to inhibit the replication of the virus in cell culture. By adding compounds at various concentrations to the culture medium, a dose response effect of the compound on virus replication was determined. A useful quantitative measure of the inhibition of RSV replication in this assay is the concentration of the compound at which virus replication in cell culture is inhibited by 50% in comparison to that observed in the absence of the compound (50% Inhibitory Concentration, IC50). In the case of RSV, IC50 values are defined as the concentration of compound that protected 50% of the cell monolayer. from virus-induced cytopathic effect (syncytia formation).
Anti-pneumovirus compounds of the invention were screened for antiviral activity against RSV (strain Long) on cultured HEp2 cells. […] After rinsing and drying the plates, the optical density of the wells was measured at 570 nm (OD570).
To determine IC50 values for the test compounds,the mean value of the OD570 readings of the virus control wells (VC) on a plate was substracted from the OD570 readings of all wells on that plate. The IC50 values were then calculated according to the following formula: […]
where Y represents the mean OD570 reading of the cell control wells (CC) divided by 2; B represents the mean OD570 reading of wells of the compound dilution nearest to and below Y; A represents the mean OD570 reading of wells of the compound dilution nearest to and above Y; L represents the compound concentration at B; and H represents the compound concentration at A. […]
(In general: Cytopathic effects are the visible damage that an infection or toxin causes in cultured cells.)

Another data set relates to human RSV subtype A. Kind of data set: Cell culture assay for inhibition of pneumovirus replication (protection from virus-induced cytopathic effect), RSV-A. As to the method: as §1, §2
(§3) Anti-pneumovirus compounds of the invention were screened for antiviral activity against RSV (strain Long) on cultured HEp2 cells. Standard 96-well culture plates were seeded with 4×10^4 HEp2 cells in 200 μL of Minimal Essential Medium with Earles salts (EMEM) supplemented with 10% fetal bovine serum (FBS). Twenty-four to 30 hours later, the cells were infected with a dilution of RSV in Medium 199 (GIBCO/BRL) with 5% FBS that had been titrated to yield>85% destruction of the cell monolayer in 60 hours. After 1 hour at […], compounds were added to wells of the plate in a final DMSO concentration of 0.5% as a series of 10 two-fold dilutions of the compound. Virus control wells (VC, no test compound) and cell culture control wells (CC, no virus, no test compound) were also included on each plate. Plates were incubated in a humidified atmosphere at 37° C. and 5% carbon dioxide. After 60 hours, 100 μL of a 5% solution of glutaraldehyde in water was added to each well, and the wells were incubated at room temperature for 1 hour. The fixative was removed, and the cells were stained with a 0.1% solution of crystal violet in water for 15-30 minutes. After rinsing and drying the plates, the optical density of the wells was measured at 570 nm (OD570).
(§4) To determine IC50 values for the test compounds,the mean value of the OD570 readings of the virus control wells (VC) on a plate was substracted from the OD570 readings of all wells on that plate. The IC50 values were then calculated according to the following formula:
(§5) IC50=[(Y—B)/(A—B)]×(H—L)+L
(§6) where Y represents the mean OD570 reading of the cell control wells (CC) divided by 2; B represents the mean OD570 reading of wells of the compound dilution nearest to and below Y; A represents the mean OD570 reading of wells of the compound dilution nearest to and above Y; L represents the compound concentration at B; and H represents the compound concentration at A.
(§7) A similar assay is useful for various strains of human RSV, including subtype A and subtype B viruses, as well as other pneumoviruses.

A further data set relates to ovine RSV. Kind of data set: Cell culture assay for inhibition of pneumovirus replication, ORSV. Particulars: protection from cytopathic effect. As to the method:
as §1, §2, §3, §4, §5, §6, §7

The next data set relates to human RSV subtype B. As to the kind of experiment: Cell culture assay for inhibition of pneumovirus replication, RSV-B. Particulars: protection from cytopathic effect. As to the method: as §1, §2, §3, §4, §5, §6, §7
In another data set the test system is normal cells. As to the kind of experiment: MTT cytotoxicity assay. Particulars: highest compound concentration giving optical density ≧75% of control, 68 hours incubation. As to the method: This assay measures cell viability, and therefore cytotoxicity, by quantitatively detecting the in situ reduction of 3-(4,5-dimethylthiazol-2-yl)-2,5-diphenyltetrazolium bromide (MTT) by viable cells. Cells are seeded in 96-well plates in DMEM containing 5% FBS at a density of 4×10^3 cells per well. After incubation for 4 hours at 37° C. and 5% CO2, 2-fold serial dilutions of compound in 1% DMSO (or solvent alone) are added to quadruplicate wells and the plates are incubated for an additional 68 hours at 37° C. and 5% CO2, which is equivalent to 3 to 4 cell doublings. The culture medium is removed, and the cells are treated with 1 mg/ml of MTT in phosphate-buffered saline, pH 7.2 for 4 hours at 37° C. and 5% CO2. After removal of the unreduced MTT, the reduced blue formazan crystals produced by the viable cells are solubilized by the addition of 0.04N HCl in isopropanol. The optical density at 570 nm (OD570) of each well is read using a suitable microplate reader. Cell viability is expressed as the percentage of optical density for compound-treated cells relative to the optical density of solvent alone-treated control wells. The highest compound concentration resulting in an optical density of≧75% of the control is represented as the cellular cytotoxicity value (CC75).
On the technique in general: Tetrazolium dyes change colour on reduction, which living cells bring about.

The next data set has as its system bovine RSV. As to the kind of experiment: Cell culture assay for inhibition of pneumovirus replication, BRSV. Particulars: protection from cytopathic effect. How it is done:
as §1, §2, §3, §4, §5, §6, §7

Setting [1] is: Activity against human RSV subtype A (Table 2), values marked 2: protection achieved only 70-90% at highest concentrations tested, read-out: IC50.
Setting [2] is: human RSV subtype A, concentration protecting 50% of cell monolayer from virus-induced cytopathic effect, HEp2 cells, 60 hours, read-out: IC50 RSV-A.
The mark [3] stands for this setting: human respiratory syncytial virus.

Consider `Nc1nnnn1N=Cc1ccc(O)c(C(c2ccc(O)cc2)c2cc(C=Nn3nnnc3N)ccc2O)c1` (stereo not drawn) [Example 1, 5,5′-Bis[1-(((5-amino-1H-tetrazolyl)imino)methyl)]2,2′,4″-methylidynetrisphenol], for which the IC50 in the data set on goat RSV was 1 nM; in the data set with human RSV subtype A (setting [1]), 1 nM; with human RSV subtype A (setting [2]), 1 nM; with ovine RSV it was 2 nM; in the data set with human RSV subtype B, 8 nM; with bovine RSV, 3 nM. This molecule yielded a CC75 in the data set on normal cells above 12500 nM.
Take `COc1ccc(C(c2ccc(C=Nn3nnnc3N)cc2O)c2ccc(C=Nn3nnnc3N)cc2O)cc1` (stereo not drawn) [Example 2, 5,5′-Bis[1-(((5-amino-1H-tetrazolyl)imino)methyl)]-4″-methoxyphenyl-2,2′-benzylidenebisphenol]: the 50% inhibitory concentration (IC50) came to 1 nM in the data set on human RSV subtype A (setting [1]), 1 nM in the data set with human RSV subtype A (setting [2]), 8 nM in the data set with human RSV subtype B and 1 nM in the data set on bovine RSV. The molecule also yielded a CC75 in the data set with normal cells above 150000 nM.
As to `Nc1ncnn1N=Cc1ccc(O)c(C(c2ccc(O)cc2)c2cc(C=Nn3ncnc3N)ccc2O)c1` (stereo not drawn) [Example 3, 5,5′-Bis[1-(((5-amino-1H-1,2,4 triazolyl)imino)methyl)]-2,2′, 4″t-methylidyne trisphenol], the IC50 in the data set on human RSV subtype A (setting [1]) was 50 nM; with human RSV subtype A (setting [2]), 50 nM; in the data set with ovine RSV it was 170 nM; in the data set with human RSV subtype B, 460 nM; in the data set with bovine RSV, 10 nM. In the data set with normal cells, the CC75 was 12500 nM.
Take `Nc1nncn1N=Cc1ccc(O)c(C(c2ccc(O)cc2)c2cc(C=Nn3cnnc3N)ccc2O)c1` (stereo not drawn) [Example 4, 5,5′-Bis[4-(((3-amino-4H-1,2,4-triazolyl)imino)methyl)]-2,2′,4″-methylidyne trisphenol]: the half-maximal inhibitory concentration (IC50) with human RSV subtype A (setting [1]) was 110 nM; in the data set on human RSV subtype A (setting [2]), 110 nM; with human RSV subtype B, 150 nM; in the data set on bovine RSV it was 270 nM. Further, the CC75 in the data set on normal cells was determined as 18800 nM.
On to `Nc1nnn(N=Cc2ccc(C(c3ccc(O)cc3)c3ccc(C=Nn4nnc(N)n4)cc3O)c(O)c2)n1` (stereo not drawn) [Example 5, 5,5′-Bis[2-(((5-amino-2H-tetrazolyl)imino)methyl)]-2,2′,4″-methylidynetrisphenol], for which the IC50 in the data set on human RSV subtype A (setting [1]) is 90 nM; with human RSV subtype A (setting [2]) it was 90 nM; in the data set with ovine RSV it was 1200 nM; in the data set on human RSV subtype B, 1900 nM; in the data set on bovine RSV, 1700 nM. In the data set with normal cells, this molecule displayed a CC75 above 50000 nM.
As for `Cc1nnnn1/N=C/c1ccc(O)c(C(c2ccc(O)cc2)c2cc(/C=N/n3nnnc3C)ccc2O)c1` [Example 6, 5,5′-Bis[1-(((5-methyl-1H-tetrazolyl)imino)methyl)]-2,2′,4″-methylidynetrisphenol], the IC50 came out at 1 nM in the data set on goat RSV; 1 nM in the data set with human RSV subtype A (setting [1]); 1 nM in the data set on human RSV subtype A (setting [2]); 1 nM with ovine RSV; 2 nM in the data set with human RSV subtype B; 1 nM in the data set with bovine RSV. In the data set with normal cells, this molecule yielded a CC75 of 3100 nM.
As to `Nc1nnnn1N=Cc1ccc(C(c2ccccc2)c2ccc(C=Nn3nnnc3N)cc2O)c(O)c1` (stereo not drawn) [Example 7, 5,5′-Bis[1-(((5-amino-1H-tetrazolyl)imino)methyl)]-2,2′-benzylidenebisphenol], the 50% inhibitory concentration (IC50) in the data set on human RSV subtype A (setting [1]) and in the data set on human RSV subtype A (setting [2]) was 1 nM in each case. Further, the CC75 with normal cells is above 6300 nM.
With `Nc1nnnn1N=Cc1ccc(O)c(Cc2cc(C=Nn3nnnc3N)ccc2O)c1` [Example 8], the IC50 with human RSV subtype A (setting [1]) was 370 nM; with human RSV subtype A (setting [2]), 370 nM; in the data set with human RSV subtype B it was 47300 nM; in the data set with bovine RSV it was 16200 nM. Also, in the data set with normal cells, the CC75 was found to be 9400 nM.
Consider `NC(=O)c1ncn([C@@H]2O[C@H](CO)[C@@H](O)[C@H]2O)n1` [Ribavirin, 1-beta-D-ribofuranosyl-1H-1,2,4-triazole-3-carboxamide, reference compound], for which the IC50 with goat RSV was found to be 3300 nM; with human RSV subtype A (human respiratory syncytial virus, HEp-2, human RSV subtype A, concentration protecting 50% of cell monolayer from virus-induced cytopathic effect, HEp2 cells, 60 hours, read-out: IC50 RSV-A), 24300 nM; in the data set on human RSV subtype A (human respiratory syncytial virus, Activity against human RSV subtype A (Table 2), values marked 2: protection achieved only 70-90% at highest concentrations tested, read-out: IC50) it was 24300 nM; with ovine RSV (setting [3]), 15500 nM; in the data set with human RSV subtype B (setting [3]), 17700 nM; with bovine RSV (Bovine orthopneumovirus), 7500 nM. Also, in the data set with normal cells, the CC75 came out at 9400 nM.
